For one assay, the target named is CDK9 (Homo sapiens, UniProt P50750). The assay is described as follows: In-vitro kinase inhibitory activity, CDK9 (selectivity). It is filed as biochemical. Conditions: read-out: IC50 (half maximal inhibitory concentration, nM) CDK9.
The next assay deals with T1, CDK4/CyclinD3 (Homo sapiens, UniProt P11802).
T1 construct: purchased Wuxi Biortus Biosciences Co. Ltd
The assay is described as follows: In-vitro kinase inhibitory activity, CDK4/CyclinD3 (Caliper EZ Reader II mobility shift). Format: biochemical. Conditions: CDK4/CyclinD3 20 nM, ATP 2 mM, Peptide 1 μM, 27° C., 180 min; read-out: IC50 (half maximal inhibitory concentration, nM) CDK4. The method in brief: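 Compound was preincubated 10 min with CDK4/CyclinD3 in Tris pH 8.0 with 5 mM MgCl2, then peptide substrate and ATP were added for 180 min at 27 °C, and the reaction was stopped with EDTA. Substrate and product were separated by mobility shift. IC50 comes from non-linear dose-response fits, with at least two replicates.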

A further assay has as its target CDK2 (Homo sapiens, UniProt P24941). The assay can be described thus: In-vitro kinase inhibitory activity, CDK2 (selectivity). It is filed as biochemical. Conditions: read-out: IC50 (half maximal inhibitory concentration, nM) CDK2.
A further assay deals with T2, CDK6/CyclinD3 (Homo sapiens, UniProt Q00534).
T2 construct: purchased Wuxi Biortus Biosciences Co. Ltd
The assay is described as follows: In-vitro kinase inhibitory activity, CDK6/CyclinD3 (Caliper EZ Reader II mobility shift). Conditions: CDK6/CyclinD3 20 nM, ATP 2 mM, Peptide 1 μM, 27° C., 120 min; read-out: IC50 (half maximal inhibitory concentration, nM) CDK6. It is filed as biochemical. The method in brief: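 Compound was preincubated 10 min with CDK6/CyclinD3, then peptide substrate plus ATP was added and the reaction ran 120 min at 27° C. before EDTA stop. Substrate and phosphorylated product were separated by microfluidic mobility shift, at least two replicates. IC50 from non-linear regression of dose-response curves.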

Assay [1] deals with human breast cancer MCF-7 cells. The assay can be described thus: Growth inhibition of tumor cells cultured in vitro, CellTiter-Glo, MCF-7. Format: cell-based. The note with it: for IC50: Homo sapiens, MCF7, 72 h, MCF-7, 72 h, CellTiter-Glo; for inhibitory effect on human breast cancer MCF-7 cells (in words): summary of the table. An excerpt:
Test drugs: Compounds of the present disclosure. Tumor cell strains: human colon cancer COLO205 cells and human breast cancer MCF-7 cells.
The growth inhibitory effects on human tumor cells COLO205 and MCF-7 cultured in vitro were observed by using a CellTiter-Glo Luminescent Cell Viability Assay Kit (Promega, Cat. No. G7572). Human tumor cells COLO205 and MCF-7 were both purchased from the American Type Culture Collection.
CellTiter-Glo Luminescent Cell Viability Assay: The previous cell culture medium was discarded, and the tumor cells were rinsed twice with PBS. An appropriate amount of trypsin (VWR, Cat. No. 0458-25G) was added to digest the tumor cells until most of the cells turned round and were detached from the wall. The trypsin digestion was terminated by adding an RPMI-1640 medium (COLO205; Gibco, Cat. No. A10491-01) containing 10% fetal bovine serum (Hyclone, Cat. No. SV30160.03) and MEM medium (MCF-7; Gibco, Cat. No. 10370-021) containing 10% fetal bovine serum and 0.01 mg/mL insulin, and the cells were gently pipetted with a pipette to completely suspend the tumor cells. After cell counting, a tumor cell suspension was prepared using a complete culture medium and the final concentration was 6.7×10^4 cells/mL. 90 μL of the tumor cell suspension was seeded in each well of a 96-well culture plate (6000 cells/well). The plate was then placed in an incubator with 5% CO2 at 37° C. and incubated for 24 h. A test drug was added by using an Agilent Bravo Automated Liquid Handling Platform, and 10 μL of the sample was added in each well. The assay was conducted in triplicate for each group. A compound of the present disclosure was dissolved in DMSO (BioRoYee, Cat. No. AF0231), and then the resulting solution was diluted to 10 μM/L, 3.33 μM/L, 1.11 μM/L, 0.37 μM/L, 0.123 μM/L, 0.041 μM/L, 0.0137 μM/L, 0.0046 μM/L, and 0.0015 μM/L with the culture medium. The concentration of DMSO was lower than 0.1%, and a culture medium containing 0.1% DMSO was added to the well which was set as a vehicle control group. The 96-well plate was placed in an incubator with 5% CO2 at 37° C. and incubated for 72 h. The 96-well plate to be tested was equilibrated at room temperature for 30 min, and 100 μL of Cell Titer-Glo reagent was added to each well. The contents of each well were mixed in an orbital shaker for 2 min to induce cell lysis, and the plate was incubated at room temperature for 10 min to achieve a constant value of fluorescent intensity. Finally, the chemiluminescence intensity was detected by TECAN M1000. Data were processed with Graphpad Prism 6.0 software. The growth curve of the cells was plotted. The cell growth inhibition rate of a drug was calculated, and the half maximal inhibitory concentration (IC50) of the drug was determined.
On the technique in general: Cellular ATP, detected with luciferase, serves as a proxy for viable cell number.

The test system of assay [2] is human colon cancer COLO205 cells. The assay can be described thus: Growth inhibition of tumor cells cultured in vitro, CellTiter-Glo, COLO205. It is filed as cell-based. Conditions: for IC50: Homo sapiens, COLO 205, 72 h, COLO205, 72 h, CellTiter-Glo; for inhibitory effect on human colon cancer COLO205 cells (in words): summary of the table. The method, boiled down:
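Cells were seeded at 6000/well, COLO205 in RPMI-1640 with 10% FBS and MCF-7 in MEM with 10% FBS plus 0.01 mg/mL insulin, and grown 24 h before dosing. Compound dilutions in medium (10 to 0.0015 μM/L before addition, DMSO <0.1%) were tested in triplicate for 72 h at 37° C. IC50 was derived from CellTiter-Glo luminescence.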

The target in a further assay is T3, CRBN (Homo sapiens, UniProt Q96SW2).
T3 construct: purchased Wuxi Biortus Biosciences Co. Ltd
The assay is described as follows: In-vitro inhibition assay of CRBN activity (fluorescence polarization, Cy5-Thalidomide). Format: binding. Conditions: Cy5-Thalidomide 10 nM, CRBN 180 nM, 27° C., 60 min. The method, then: The final volume for assay was 20 μL, and the reaction temperature was 27° C. CRBN was produced by Wuxi Biortus Biosciences Co. Ltd. The concentration of the kinase was determined by the optimization experiment, and the kinase was diluted with an assay buffer (50 mM Tris, pH 7.5, 100 mM NaCl, and 0.01% Pluronic acid) to obtain a corresponding kinase solution (2× concentration). The compound was dissolved in dimethyl sulfoxide (DMSO) to reach a concentration of 10 mM. […] 5 μL of the test compound solution was mixed with 5 μL of the substrate solution, and 10 μL of the kinase solution was added to the mixture. The mixture was incubated at 27° C. for 60 min. Each assay was conducted in at least two replicates. […].
The final concentrations of the reagents in the assay were as follows. […] The data of fluorescence polarization assay were read on TECAN infinite M1000. Data were calculated by using GraphPad Prism version 6.0, and IC50 values were obtained by adjusting the non-linear regression models of the dose response curves.

The structures appear in SMILES notation. A value given as a limit tells only on which side of the number the result lay.

T2 sequence (Q00534 whole entry, species assumed): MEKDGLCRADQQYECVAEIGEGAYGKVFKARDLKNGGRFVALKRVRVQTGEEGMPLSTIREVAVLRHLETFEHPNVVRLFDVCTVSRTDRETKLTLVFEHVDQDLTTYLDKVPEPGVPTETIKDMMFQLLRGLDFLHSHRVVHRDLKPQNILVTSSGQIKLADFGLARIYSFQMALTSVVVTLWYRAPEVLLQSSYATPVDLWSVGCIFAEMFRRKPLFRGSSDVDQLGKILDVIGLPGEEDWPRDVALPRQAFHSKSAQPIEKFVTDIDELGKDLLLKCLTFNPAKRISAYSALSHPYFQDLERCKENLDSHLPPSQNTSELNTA
T2 sequence (P30281 whole entry partner, species assumed): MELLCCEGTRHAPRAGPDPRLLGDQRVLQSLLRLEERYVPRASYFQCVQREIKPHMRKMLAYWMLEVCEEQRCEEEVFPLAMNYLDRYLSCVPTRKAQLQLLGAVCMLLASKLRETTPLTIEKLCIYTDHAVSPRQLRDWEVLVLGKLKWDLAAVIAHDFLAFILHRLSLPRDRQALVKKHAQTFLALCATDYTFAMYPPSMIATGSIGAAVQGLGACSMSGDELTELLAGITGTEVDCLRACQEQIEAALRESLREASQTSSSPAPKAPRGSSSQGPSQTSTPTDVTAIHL
Sequence of CDK9 (P50750 whole entry, species assumed): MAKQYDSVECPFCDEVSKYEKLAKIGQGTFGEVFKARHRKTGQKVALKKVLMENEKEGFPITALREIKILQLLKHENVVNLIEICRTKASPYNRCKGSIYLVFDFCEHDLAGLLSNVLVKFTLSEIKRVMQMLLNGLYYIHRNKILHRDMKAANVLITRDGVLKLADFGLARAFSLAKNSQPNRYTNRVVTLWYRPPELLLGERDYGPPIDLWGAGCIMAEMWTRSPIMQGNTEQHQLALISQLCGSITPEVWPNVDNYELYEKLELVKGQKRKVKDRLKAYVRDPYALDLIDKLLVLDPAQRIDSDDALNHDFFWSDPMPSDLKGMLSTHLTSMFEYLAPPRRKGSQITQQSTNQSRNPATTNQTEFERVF
Sequence of CDK9 (O60563 whole entry partner, species assumed): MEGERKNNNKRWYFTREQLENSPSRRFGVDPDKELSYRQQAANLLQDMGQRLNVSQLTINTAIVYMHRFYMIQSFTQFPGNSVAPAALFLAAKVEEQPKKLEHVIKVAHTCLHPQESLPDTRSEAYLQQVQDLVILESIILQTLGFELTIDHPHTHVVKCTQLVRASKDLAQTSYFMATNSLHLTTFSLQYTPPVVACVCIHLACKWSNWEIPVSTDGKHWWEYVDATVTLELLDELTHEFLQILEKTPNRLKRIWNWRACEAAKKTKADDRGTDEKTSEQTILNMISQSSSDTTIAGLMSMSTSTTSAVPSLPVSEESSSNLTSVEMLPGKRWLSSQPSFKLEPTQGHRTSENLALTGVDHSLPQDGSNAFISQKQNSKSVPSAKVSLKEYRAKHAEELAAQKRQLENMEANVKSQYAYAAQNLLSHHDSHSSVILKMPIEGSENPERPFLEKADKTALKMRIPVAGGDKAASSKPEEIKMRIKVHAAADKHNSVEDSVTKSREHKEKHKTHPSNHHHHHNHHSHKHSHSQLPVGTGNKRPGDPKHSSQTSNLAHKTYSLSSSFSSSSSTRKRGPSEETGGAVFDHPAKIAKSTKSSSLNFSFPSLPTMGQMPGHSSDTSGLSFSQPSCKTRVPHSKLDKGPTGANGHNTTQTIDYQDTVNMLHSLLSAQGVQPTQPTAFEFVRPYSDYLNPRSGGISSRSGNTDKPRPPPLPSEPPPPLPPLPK
T1 sequence (P11802 whole entry, species assumed): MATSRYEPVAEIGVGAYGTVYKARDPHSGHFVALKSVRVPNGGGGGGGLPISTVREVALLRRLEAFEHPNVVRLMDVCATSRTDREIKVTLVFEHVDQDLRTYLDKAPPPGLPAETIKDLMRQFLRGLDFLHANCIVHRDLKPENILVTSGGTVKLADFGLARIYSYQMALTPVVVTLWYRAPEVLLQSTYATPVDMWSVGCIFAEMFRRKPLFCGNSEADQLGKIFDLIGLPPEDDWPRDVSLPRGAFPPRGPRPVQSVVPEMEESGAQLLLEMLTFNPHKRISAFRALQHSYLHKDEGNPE
T1 sequence (P30281 whole entry partner, species assumed): as the sequence (P30281 whole entry partner, species assumed) above
T3 sequence (Q96SW2 whole entry, species assumed): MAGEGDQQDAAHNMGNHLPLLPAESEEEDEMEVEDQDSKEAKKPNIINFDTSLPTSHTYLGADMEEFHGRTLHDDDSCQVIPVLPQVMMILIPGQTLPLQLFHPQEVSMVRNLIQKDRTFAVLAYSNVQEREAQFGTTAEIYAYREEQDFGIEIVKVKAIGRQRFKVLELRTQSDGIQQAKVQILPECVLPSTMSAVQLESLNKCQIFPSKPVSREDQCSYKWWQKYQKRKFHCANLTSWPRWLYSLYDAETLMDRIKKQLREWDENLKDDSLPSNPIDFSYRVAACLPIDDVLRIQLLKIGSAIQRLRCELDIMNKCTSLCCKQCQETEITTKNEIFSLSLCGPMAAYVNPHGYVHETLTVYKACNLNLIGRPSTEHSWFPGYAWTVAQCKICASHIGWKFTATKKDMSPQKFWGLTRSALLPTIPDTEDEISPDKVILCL

As for `CC(=O)c1c(C)c2cnc(Nc3ccc(N4CCN(CCN5CCN(c6ccc7c(c6)CN(C6CCC(=O)NC6=O)C7=O)CC5)CC4)cn3)nc2n(C2CCCC2)c1=O` (single isomer, unassigned) [Compound 1, 3-(5-(4-(2-(4-(6-((6-acetyl-8-cyclopentyl-5-methyl-7-oxo-7,8-dihydropyrido[2,3-d]pyrimidin-2-yl)amino)pyridin-3-yl)piperazin-1-yl)ethyl)piperazin-1-yl)-1-oxoisoindolin-2-yl)piperidine-2,6-dione], the IC50 at CDK9 was 4180 nM; at CDK4/CyclinD3 it was 38.8 nM; at CDK2 it was greater than 10000 nM; on CDK6/CyclinD3 it was 21.3 nM; in assay [1] it was greater than 10000 nM; in assay [2], 45.7 nM. The same compound had an IC50 at CRBN of 3000 nM. Besides, the “inhibitory effect on human colon cancer COLO205 cells (in words)” value in assay [2] is “relatively good inhibitory effects”.
Turning to `CC(=O)c1c(C)c2cnc(Nc3ccc(N4CCN(CCCCN5CCC(CN6CCN(c7ccc8c(c7)CN(C7CCC(=O)NC7=O)C8=O)CC6)CC5)CC4)cn3)nc2n(C2CCCC2)c1=O` (stereo not shown) [Compound 5, 3-(5-(4-((1-(4-(4-(6-((6-acetyl-8-cyclopentyl-5-methyl-7-oxo-7,8-dihydropyrido[2,3-d]pyrimidin-2-yl)amino)pyridin-3-yl)piperazin-1-yl)butyl)piperidin-4-yl)methyl)piperazin-1-yl)-1-oxoisoindolin-2-yl)piperidine-2,6-dione], the IC50 turned out to be 5470 nM on CDK9; 10 nM at CDK4/CyclinD3; 9910 nM at CDK2; 6.6 nM at CDK6/CyclinD3; 30.4 nM in assay [1]; 291 nM in assay [2]. Also, the IC50 against CRBN turned out to be 5280 nM. Further, the “inhibitory effect on human breast cancer MCF-7 cells (in words)” value in assay [1] is on record as “relatively good inhibitory effects”.
In the case of `CC(=O)c1c(C)c2cnc(Nc3ccc(N4CCN(CCN5CCC(CN6CCN(c7ccc8c(c7)CN(C7CCC(=O)NC7=O)C8=O)CC6)CC5)CC4)cn3)nc2n(C2CCCC2)c1=O` (single isomer, unassigned) [Compound 3, 3-(5-(4-((1-(2-(4-(6-((6-acetyl-8-cyclopentyl-5-methyl-7-oxo-7,8-dihydropyrido[2,3-d]pyrimidin-2-yl)amino)pyridin-3-yl)piperazin-1-yl)ethyl)piperidin-4-yl)methyl)piperazin-1-yl)-1-oxoisoindolin-2-yl)piperidine-2,6-dione], the IC50 at CDK9 came out at 2850 nM; at CDK4/CyclinD3 it was 16.1 nM; at CDK2, 9660 nM; on CDK6/CyclinD3 it was 14.5 nM; against CRBN, 1200 nM.
Take `CC(=O)c1c(C)c2cnc(Nc3ccc(N4CCN(CCN5CCC(CN6CCN(c7ccc8c(c7)CN(C7CCC(=O)NC7=O)C8=O)CC6)CC5)CC4)cn3)nc2n(C2CCCC2)c1=O.Cl.Cl.Cl` (single isomer, unassigned) [Compound 4, 3-(5-(4-((1-(2-(4-(6-((6-acetyl-8-cyclopentyl-5-methyl-7-oxo-7,8-dihydropyrido[2,3-d]pyrimidin-2-yl)amino)pyridin-3-yl)piperazin-1-yl)ethyl)piperidin-4-yl)methyl)piperazin-1-yl)-1-oxoisoindolin-2-yl)piperidine-2,6-dione trihydrochloride]: the IC50 was 8640 nM at CDK9; 10.7 nM at CDK4/CyclinD3; greater than 10000 nM on CDK2; 9.7 nM on CDK6/CyclinD3; 50.5 nM in assay [1]; 69.2 nM in assay [2]. The compound further came in with an IC50 against CRBN of 2080 nM. Also, the “inhibitory effect on human breast cancer MCF-7 cells (in words)” value in assay [1] is given as “relatively good inhibitory effects”. Moreover, the “inhibitory effect on human colon cancer COLO205 cells (in words)” value in assay [2] is recorded as “relatively good inhibitory effects”.
With `Cc1nc2c(F)cc(-c3nc(Nc4ccc(CN5CCN(CC(=O)N6CCC(C(=O)N7CCN(c8ccc9c(c8)CN([C@H]8CCC(=O)NC8=O)C9=O)CC7)CC6)CC5)cn4)ncc3F)cc2n1C(C)C` [Compound 6, (S)-3-(5-(4-(1-(2-(4-((6-((5-fluoro-4-(4-fluoro-1-isopropyl-2-methyl-1H-benzo[d]imidazol-6-yl)pyrimidin-2-yl)amino)pyridin-3-yl)methyl)piperazin-1-yl)acetyl)piperidin-4-carbonyl)piperazin-1-yl)-1-oxoisoindolin-2-yl)piperidine-2,6-dione], the IC50 worked out at 946 nM on CDK9; 24.2 nM on CDK4/CyclinD3; 1140 nM at CDK2; 42.4 nM on CDK6/CyclinD3; 2510 nM on CRBN.
On the same counts, the results for `CC(=O)c1c(C)c2cnc(Nc3ccc(N4CCN(CC(=O)N5CCC(C(=O)N6CCN(c7ccc8c(c7)CN([C@H]7CCC(=O)NC7=O)C8=O)CC6)CC5)CC4)cn3)nc2n(C2CCCC2)c1=O` [Compound 7, (S)-3-(5-(4-(1-(2-(4-(6-((6-acetyl-8-cyclopentyl-5-methyl-7-oxo-7,8-dihydropyrido[2,3-d]pyrimidin-2-yl)amino)pyridin-3-yl)piperazin-1-yl)acetyl)piperidin-4-carbonyl)piperazin-1-yl)-1-oxoisoindolin-2-yl)piperidine-2,6-dione] are 9920 nM, 54.7 nM, 7480 nM, 30 nM and 1420 nM.

The values are drawn from US11485735B2, “Selective CDK4/6 inhibitor and preparation thereof” (Wuxi Shuangliang Biotechnology Co., Ltd., priority 2019, dated 2022).
